Earlier results on one compound are cited in article PMC9686322 (Frontiers in Neurology, 2022).

On the set-up of data set [1]: method as in PMID 29847694.
On the set-up of data set [2]: method as in PMID 15956161, PMID 10626097, PMID 21080186.

For the compound `N[C@@H](Cc1ccc(O)c(O)c1)C(=O)O` [levodopa], the Plasma half-life in data set [1] is 1.5 to 2.5 h. Further, the “Threshold plasma concentration to achieve sustained relief of PD symptoms” value in data set [2] is listed as “about 1,000 ng/ml”.
